# Test results published in patent US4801597A, “Certain inositol-nicotinate ester derivatives and polyionic complexes therefore useful for treating diabetes meuitus, hyperlipidemia and lactic acidosis” (University of Florida, priority 1985, dated 1989).
# Legend:
# [1] = system: circulating triglyceride and cholesterol; conditions: obese and diabetic animals; cited from earlier work
# [2] = system: lactic acid levels; conditions: patients with lactic acidosis; cited from earlier work
# [3] = system: blood lactate; assay: Blood lactate lowering in fasted rats, single orogastric dose, monitored over 24 hours; assay type: in vivo; conditions: for duration of action (blood lactate decrease): single orogastric dose, sodium DCA 100 mg/kg or derivative equivalent to 100 mg/kg DCA
# Excerpt: (§1) Results are expressed as (1) maximum percent decrease in glucose or lactace, relative to control, (2) the time at which the maximum changes occurred, and (3) the duration of action of the drug.
# [4] = system: serum glucose; assay: Serum glucose lowering in fasted rats, single orogastric dose, monitored over 24 hours; assay type: in vivo; conditions: sodium DCA 100 mg/kg or derivative equivalent to 100 mg/kg DCA
# Excerpt: as §1
# [5] = system: peripheral tissues; conditions: cited from earlier work
# [6] = system: blood glucose; conditions: patients with diabetes mellitus; cited from earlier work
# [7] = system: blood cholesterol; conditions: patients with various forms of hyperlipidemia; cited from earlier work
# [8] = system: hepatic glucose production; conditions: cited from earlier work
# [9] = one human patient, about four months; resolved when treatment stopped; cited from earlier work
# [10] = chronic administration, doses exceeding those used clinically; cited from earlier work
# [11] = cited from earlier work
# [12] = system: lactate oxidation; conditions: animal tissues; cited from earlier work
# [13] = Comparative pharmacokinetic investigations (bioavailability, oxalate formation); assay type: in vivo; conditions: comparative pharmacokinetic investigations with DCA and Derivative 4
smiles,measurement,setting,value
"O=C(O)C(Cl)Cl [DCA, dichloroacetic acid]",circulating triglyceride and cholesterol concentrations,[1],reduces circulating triglyceride and cholesterol concentrations
same,lactic acid levels and overall morbidity,[2],significantly decreases lactic acid levels and overall morbidity in patients with lactic acidosis
same,duration of action (blood lactate decrease),[3],18 h
same,duration of action (serum glucose decrease),[4],17 h
same,glucose uptake and utilization,[5],stimulates glucose uptake and utilization by peripheral tissues
same,blood glucose levels,[6],decrease blood glucose levels in patients with diabetes mellitus
same,blood cholesterol levels,[7],markedly decreases blood cholesterol levels
same,hepatic glucose production,[8],inhibits hepatic glucose production
same,polyneuropathy,[9],mild polyneuropathy that resolved when treatment stopped
same,chronic toxicity,[10],"reversible peripheral neuropathy, changes in testicular morphology and lenticular opacities"
same,in vivo oxidation,[11],oxidize in vivo to glyoxylate and subsequently to oxalate
same,lactate oxidation,[12],stimulates lactate oxidation in animal tissues
"O=C(OC1OC(C(=O)O)C(OC(=O)C(Cl)Cl)C(OC(=O)C(Cl)Cl)C1OC(=O)C(Cl)Cl)C(Cl)Cl (stereo not shown) [Derivative 1, potassium tetra(dichloroacetyl)glucuronate]",duration of action (blood lactate decrease),[3],> 24 h
same,duration of action (serum glucose decrease),[4],> 24 h
"O=C(OC1C(O)C(OP(=O)(O)O)C(OC(=O)C(Cl)Cl)C(OC(=O)C(Cl)Cl)C1OC(=O)C(Cl)Cl)C(Cl)Cl (stereo not shown) [Derivative 2, inositol monophosphatetetradichloroacetate]",duration of action (blood lactate decrease),[3],> 24 h
same,duration of action (serum glucose decrease),[4],24 h
"O=C(OC1C(OC(=O)C(Cl)Cl)C(OC(=O)C(Cl)Cl)C(OC(=O)C(Cl)Cl)C(OC(=O)C(Cl)Cl)C1OC(=O)C(Cl)Cl)C(Cl)Cl (stereo not shown) [Derivative 3, inositol hexadichloroacetate]",potency relative to DCA (blood lactate),"[3]; FIG. 2, dose equivalent to 100 mg/kg DCA",less potent than DCA
same,duration of action (blood lactate decrease),[3],8 h
same,duration of action (serum glucose decrease),[4],6 h
"C[n+]1cccc(C(=O)OC2C(OC(=O)c3ccc[n+](C)c3)C(OC(=O)c3ccc[n+](C)c3)C(OC(=O)c3ccc[n+](C)c3)C(OC(=O)c3ccc[n+](C)c3)C2OC(=O)c2ccc[n+](C)c2)c1 (stereo not shown) [Derivative 4, inositol hexa(N-methylnicotinate-dichloroacetate)]",duration of action (blood lactate decrease),[3],> 24 h
same,duration of action (serum glucose decrease),[4],> 24 h
same,formation of oxalate,[13],minimal and unlikely to be toxic
